Experimental findings from article PMC10562782 (iScience, 2023) are described below.

Common to all, as to assay type: binding
For assay [1], the target named is T1, CtUGGTGT24 (UDP-glucose glycoprotein glucosyltransferase, catalytic domain) (Thermochaetoides thermophila, UniProt G0SB58).
T1 sequence (G0SB58 1187-1473): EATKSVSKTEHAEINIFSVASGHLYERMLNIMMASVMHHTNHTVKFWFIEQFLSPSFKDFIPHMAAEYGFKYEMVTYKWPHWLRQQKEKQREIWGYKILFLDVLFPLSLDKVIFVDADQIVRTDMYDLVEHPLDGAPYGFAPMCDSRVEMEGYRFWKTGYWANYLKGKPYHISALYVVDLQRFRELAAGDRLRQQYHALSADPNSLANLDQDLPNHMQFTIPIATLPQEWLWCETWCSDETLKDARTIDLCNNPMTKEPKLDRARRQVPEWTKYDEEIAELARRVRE
The assay is described as follows: co-crystal structure.

Assay [2] concerns the target T1, CtUGGTGT24 (UDP-glucose glycoprotein glucosyltransferase, catalytic domain). The assay is described as follows: […] Å co-crystal structure.
The target in the next assay is human UGGT1 (Homo sapiens, UniProt Q9NYU2). Nature of the assay: STD NMR.
human UGGT1, sequence (Q9NYU2 43-1551): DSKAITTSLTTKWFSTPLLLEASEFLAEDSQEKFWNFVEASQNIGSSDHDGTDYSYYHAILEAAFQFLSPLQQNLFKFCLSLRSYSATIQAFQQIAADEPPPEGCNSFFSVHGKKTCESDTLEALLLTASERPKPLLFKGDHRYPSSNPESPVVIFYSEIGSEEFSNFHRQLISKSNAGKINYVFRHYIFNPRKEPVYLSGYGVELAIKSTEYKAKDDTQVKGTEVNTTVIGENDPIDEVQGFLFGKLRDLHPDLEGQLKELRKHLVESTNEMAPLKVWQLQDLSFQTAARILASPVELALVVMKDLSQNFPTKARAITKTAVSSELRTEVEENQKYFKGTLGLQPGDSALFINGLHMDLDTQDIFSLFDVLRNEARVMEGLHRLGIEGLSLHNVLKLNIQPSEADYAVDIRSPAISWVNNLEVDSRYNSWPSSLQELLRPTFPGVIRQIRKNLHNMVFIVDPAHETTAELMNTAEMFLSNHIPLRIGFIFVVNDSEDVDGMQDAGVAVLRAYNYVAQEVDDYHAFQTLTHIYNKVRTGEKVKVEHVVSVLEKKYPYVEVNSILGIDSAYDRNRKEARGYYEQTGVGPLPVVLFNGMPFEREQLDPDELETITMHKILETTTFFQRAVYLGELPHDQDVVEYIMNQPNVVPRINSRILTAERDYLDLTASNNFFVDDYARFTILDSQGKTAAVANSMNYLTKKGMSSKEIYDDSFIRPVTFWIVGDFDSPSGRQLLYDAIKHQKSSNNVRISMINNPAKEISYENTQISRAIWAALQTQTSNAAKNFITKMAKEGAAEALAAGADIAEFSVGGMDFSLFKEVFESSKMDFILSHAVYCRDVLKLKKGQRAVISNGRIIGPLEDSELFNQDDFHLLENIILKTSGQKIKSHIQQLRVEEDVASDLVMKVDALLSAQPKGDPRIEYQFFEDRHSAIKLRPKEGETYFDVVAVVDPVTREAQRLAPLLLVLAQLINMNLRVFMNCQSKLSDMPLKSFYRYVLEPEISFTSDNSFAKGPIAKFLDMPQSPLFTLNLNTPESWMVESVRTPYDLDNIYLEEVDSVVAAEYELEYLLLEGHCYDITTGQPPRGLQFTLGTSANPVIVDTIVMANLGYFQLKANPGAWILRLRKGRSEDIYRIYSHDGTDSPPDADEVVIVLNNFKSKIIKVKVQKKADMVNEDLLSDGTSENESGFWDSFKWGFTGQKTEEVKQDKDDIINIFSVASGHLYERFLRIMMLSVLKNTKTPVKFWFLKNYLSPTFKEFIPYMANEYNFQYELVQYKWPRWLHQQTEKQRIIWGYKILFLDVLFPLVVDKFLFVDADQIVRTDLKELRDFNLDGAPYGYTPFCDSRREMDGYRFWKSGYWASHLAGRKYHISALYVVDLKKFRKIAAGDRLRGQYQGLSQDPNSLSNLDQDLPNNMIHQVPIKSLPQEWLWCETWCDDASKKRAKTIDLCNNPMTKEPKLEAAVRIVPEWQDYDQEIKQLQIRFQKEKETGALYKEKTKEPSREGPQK

`O=c1ccn([C@@H]2O[C@H](COP(=O)(O)OP(=O)(O)O[C@H]3O[C@H](CO)[C@@H](O)[C@H](O)[C@H]3F)[C@@H](O)[C@H]2O)c(=O)[nH]1` [U2F]: in assay [1], the “co-crystal structure (X-ray)” value is “In the ^U2FCtUGGTGT24 structure (PDB ID 7ZLU) these two water molecules are replaced by an O atom”. On to `Oc1ccc(CN2CCOCC2)c2cccnc12` [5M-8OH-Q, 5-[(morpholin-4-yl)methyl]quinolin-8-ol], for which the figures for the Kd (in assay [2]; on human UGGT1) were 47 ± 0.7 µM and 613 µM, respectively.

Usually Kd stands for the concentration at which binding is half-saturated. The low end stands for higher affinity, the high end for lower affinity.
